Measurements as given in ChEMBL document CHEMBL5291721, “A preclinical secondary pharmacology resource illuminates target-adverse drug reaction associations of marketed drugs” (Nat Commun, 2023).
Where a SMILES comes first, the peptide text is derived from it. [ ]: non-standard residue; d: D form. pGlu = O=C1CC[C@@H](C(=O)O)N1; Thz = O=C(O)[C@@H]1CSCN1

Legend:
[1] = molecular target: 5-hydroxytryptamine receptor 2A (Homo sapiens, UniProt P28223); format: functional, cell-based
[2] = molecular target: T1, Alpha-1A adrenergic receptor (Homo sapiens, UniProt P35348); format: functional, cell-based
T1 sequence (P35348 whole entry): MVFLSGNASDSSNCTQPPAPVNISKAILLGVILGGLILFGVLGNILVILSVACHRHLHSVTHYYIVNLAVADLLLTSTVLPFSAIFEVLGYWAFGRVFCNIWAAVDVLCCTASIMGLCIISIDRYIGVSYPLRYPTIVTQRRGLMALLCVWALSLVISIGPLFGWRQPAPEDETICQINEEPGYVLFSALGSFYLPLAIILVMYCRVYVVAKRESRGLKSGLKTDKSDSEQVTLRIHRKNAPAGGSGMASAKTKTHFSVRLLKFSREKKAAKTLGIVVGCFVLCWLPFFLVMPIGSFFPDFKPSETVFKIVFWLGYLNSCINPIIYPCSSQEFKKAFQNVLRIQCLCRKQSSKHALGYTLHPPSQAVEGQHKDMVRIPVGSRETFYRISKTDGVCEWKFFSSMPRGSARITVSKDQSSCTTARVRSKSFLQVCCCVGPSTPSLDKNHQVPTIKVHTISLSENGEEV

[3] = molecular target: T2, Muscarinic acetylcholine receptor M1 (Homo sapiens, UniProt P11229); format: functional
T2 sequence (P11229 whole entry): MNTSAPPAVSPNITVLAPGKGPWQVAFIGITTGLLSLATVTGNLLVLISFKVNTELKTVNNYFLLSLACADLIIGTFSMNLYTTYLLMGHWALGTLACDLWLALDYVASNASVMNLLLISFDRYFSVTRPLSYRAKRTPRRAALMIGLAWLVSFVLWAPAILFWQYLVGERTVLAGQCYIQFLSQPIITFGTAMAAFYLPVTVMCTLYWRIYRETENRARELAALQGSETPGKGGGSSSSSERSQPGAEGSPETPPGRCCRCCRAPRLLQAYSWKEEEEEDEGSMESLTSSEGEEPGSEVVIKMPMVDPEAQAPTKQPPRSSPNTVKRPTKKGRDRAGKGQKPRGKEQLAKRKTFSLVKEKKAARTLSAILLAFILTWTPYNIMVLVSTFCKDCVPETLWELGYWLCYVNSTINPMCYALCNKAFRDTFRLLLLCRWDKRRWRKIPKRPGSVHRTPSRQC

Mu-type opioid receptor [4] = molecular target: T3, Mu-type opioid receptor (Homo sapiens, UniProt P35372); test: biochemical; format: functional
T3 sequence (P35372 whole entry): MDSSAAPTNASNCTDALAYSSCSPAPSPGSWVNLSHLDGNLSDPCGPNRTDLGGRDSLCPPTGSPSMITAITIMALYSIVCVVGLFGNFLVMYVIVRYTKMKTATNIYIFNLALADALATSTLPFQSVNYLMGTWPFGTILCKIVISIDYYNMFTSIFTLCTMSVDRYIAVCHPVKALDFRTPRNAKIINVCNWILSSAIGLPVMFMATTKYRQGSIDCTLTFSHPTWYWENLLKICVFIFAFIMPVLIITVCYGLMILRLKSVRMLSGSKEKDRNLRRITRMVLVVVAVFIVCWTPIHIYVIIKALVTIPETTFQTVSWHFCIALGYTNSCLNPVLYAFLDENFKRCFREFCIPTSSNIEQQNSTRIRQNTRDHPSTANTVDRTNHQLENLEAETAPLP

Melanocortin receptor 4 = Melanocortin receptor 4 (Homo sapiens, UniProt P32245)
Chain of Melanocortin receptor 4 (P32245 whole entry): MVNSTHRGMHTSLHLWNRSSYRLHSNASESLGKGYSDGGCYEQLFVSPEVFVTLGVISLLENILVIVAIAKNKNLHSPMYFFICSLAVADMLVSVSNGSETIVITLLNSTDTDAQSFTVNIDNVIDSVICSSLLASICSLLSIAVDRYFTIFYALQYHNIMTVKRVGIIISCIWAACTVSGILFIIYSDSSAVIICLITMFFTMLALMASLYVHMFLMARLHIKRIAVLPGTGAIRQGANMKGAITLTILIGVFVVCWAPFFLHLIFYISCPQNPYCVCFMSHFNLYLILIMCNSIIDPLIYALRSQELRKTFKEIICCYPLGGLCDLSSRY

Cannabinoid receptor 1 = Cannabinoid receptor 1 (Homo sapiens, UniProt P21554)
Chain of Cannabinoid receptor 1 (P21554 whole entry): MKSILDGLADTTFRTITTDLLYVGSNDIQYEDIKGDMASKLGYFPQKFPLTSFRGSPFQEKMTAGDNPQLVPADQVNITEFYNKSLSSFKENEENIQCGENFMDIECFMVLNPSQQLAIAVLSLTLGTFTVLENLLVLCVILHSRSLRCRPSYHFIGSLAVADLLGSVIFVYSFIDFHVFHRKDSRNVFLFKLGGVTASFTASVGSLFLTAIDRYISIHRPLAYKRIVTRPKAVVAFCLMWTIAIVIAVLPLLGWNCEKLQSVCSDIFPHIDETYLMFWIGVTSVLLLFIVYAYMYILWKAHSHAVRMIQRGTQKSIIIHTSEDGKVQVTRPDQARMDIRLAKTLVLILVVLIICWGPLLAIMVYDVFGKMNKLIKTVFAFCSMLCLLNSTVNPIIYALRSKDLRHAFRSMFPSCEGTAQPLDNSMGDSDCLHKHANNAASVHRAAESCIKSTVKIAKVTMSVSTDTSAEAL

[5] = molecular target: T1, Alpha-1A adrenergic receptor
[6] = molecular target: T4, 5-hydroxytryptamine receptor 1A (Homo sapiens, UniProt P08908); format: functional, cell-based
T4 sequence (P08908 whole entry): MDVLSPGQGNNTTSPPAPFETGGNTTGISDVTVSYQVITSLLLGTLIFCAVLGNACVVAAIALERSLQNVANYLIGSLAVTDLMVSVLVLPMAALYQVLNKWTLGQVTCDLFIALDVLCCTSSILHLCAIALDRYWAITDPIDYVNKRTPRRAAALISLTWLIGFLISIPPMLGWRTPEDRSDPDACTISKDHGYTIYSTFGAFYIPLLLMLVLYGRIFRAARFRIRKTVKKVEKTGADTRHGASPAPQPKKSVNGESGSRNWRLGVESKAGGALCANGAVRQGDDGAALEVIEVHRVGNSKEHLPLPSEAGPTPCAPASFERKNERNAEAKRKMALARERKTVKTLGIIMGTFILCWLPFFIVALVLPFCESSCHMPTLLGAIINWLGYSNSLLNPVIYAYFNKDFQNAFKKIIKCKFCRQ

Mu-type opioid receptor [7] = molecular target: T3, Mu-type opioid receptor
Estrogen receptor = molecular target: T5, Estrogen receptor (Homo sapiens, UniProt P03372)
T5 sequence (P03372 whole entry): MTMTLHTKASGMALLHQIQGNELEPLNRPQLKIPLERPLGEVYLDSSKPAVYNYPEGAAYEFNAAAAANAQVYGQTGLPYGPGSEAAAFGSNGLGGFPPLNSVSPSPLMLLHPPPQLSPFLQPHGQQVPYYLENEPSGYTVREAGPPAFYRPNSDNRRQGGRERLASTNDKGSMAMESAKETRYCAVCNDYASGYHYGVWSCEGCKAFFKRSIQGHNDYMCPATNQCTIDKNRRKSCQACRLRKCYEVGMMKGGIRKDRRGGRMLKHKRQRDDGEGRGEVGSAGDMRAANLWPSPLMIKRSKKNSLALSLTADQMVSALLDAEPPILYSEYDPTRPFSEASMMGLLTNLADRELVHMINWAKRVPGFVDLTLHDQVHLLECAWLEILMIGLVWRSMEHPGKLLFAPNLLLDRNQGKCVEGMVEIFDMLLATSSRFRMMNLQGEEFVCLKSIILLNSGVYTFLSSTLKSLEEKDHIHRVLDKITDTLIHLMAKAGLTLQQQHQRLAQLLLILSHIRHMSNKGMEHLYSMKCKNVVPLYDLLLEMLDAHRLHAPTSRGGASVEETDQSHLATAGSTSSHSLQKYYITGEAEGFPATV
Note: assay procedure not described here.

Chain of 5-hydroxytryptamine receptor 2A (P28223 whole entry): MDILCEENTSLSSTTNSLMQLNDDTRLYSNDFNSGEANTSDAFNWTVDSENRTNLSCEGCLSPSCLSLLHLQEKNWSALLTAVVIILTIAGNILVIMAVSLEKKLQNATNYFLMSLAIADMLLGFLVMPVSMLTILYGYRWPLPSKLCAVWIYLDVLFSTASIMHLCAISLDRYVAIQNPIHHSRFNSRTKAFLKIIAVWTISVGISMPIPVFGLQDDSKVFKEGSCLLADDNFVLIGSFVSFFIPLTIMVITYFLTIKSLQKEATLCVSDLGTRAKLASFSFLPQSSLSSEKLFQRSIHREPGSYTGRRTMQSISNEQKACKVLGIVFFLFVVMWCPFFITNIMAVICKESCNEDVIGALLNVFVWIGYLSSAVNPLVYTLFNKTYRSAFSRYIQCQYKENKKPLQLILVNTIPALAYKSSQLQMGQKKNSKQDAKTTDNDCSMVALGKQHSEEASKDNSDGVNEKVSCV

SMILES	AC50 [1] [µM]	AC50 [2] [µM]	AC50 [3] [µM]	AC50 (Mu-type opioid receptor [4]) [µM]	AC50 (Melanocortin receptor 4) [µM]	AC50 (Cannabinoid receptor 1) [µM]	AC50 [5] [µM]	AC50 [6] [µM]	AC50 (Mu-type opioid receptor [7]) [µM]	AC50 (Estrogen receptor) [µM]
Oc1cc(O)c(Cl)cn1	> 30	26	> 30	> 30	–	–	–	–	–	–
C[N+]12CCC(CC1)C(OC(=O)C(O)(c1ccccc1)c1ccccc1)C2 (stereo unspecified)	> 30	> 30	0.0031	> 30	–	–	–	–	–	–
CCC1(CCC(C)C)C(=O)NC(=O)NC1=O [AMOBARBITAL]	–	–	–	–	> 10	> 10	> 10	> 10	> 30	–
COc1ccc(C2C(=O)c3ccccc3C2=O)cc1 [ANISINDIONE]	–	–	–	> 30	> 10	> 10	> 30	> 10	> 30	> 30
O=C(O)CCNC(=O)c1ccc(/N=N/c2ccc(O)c(C(=O)O)c2)cc1 [BALSALAZIDE]	–	–	–	> 30	> 30	> 30	> 30	> 30	–	> 30
O=C(CCCN1CCC(O)(c2ccc(Br)cc2)CC1)c1ccc(F)cc1 [BROMPERIDOL]	–	0.28	20	2	–	–	–	1.2	–	> 30
CO/N=C(\C(=O)N[C@@H]1C(=O)N2C(C(=O)O)=CCS[C@H]12)c1csc(N)n1 [CEFTIZOXIME]	> 30	> 30	> 30	> 30	–	–	–	–	–	> 30
CC(CN(C)C)C(C)(O)Cc1ccc(Cl)cc1 (stereo unspecified) [CLOBUTINOL]	–	> 30	> 10	–	> 30	> 10	> 10	> 10	> 30	> 30
C[C@@H]1C[C@H]2[C@@H]3CCC4=CC(=O)C=C[C@]4(C)[C@@]3(F)[C@@H](O)C[C@]2(C)[C@@]1(O)C(=O)CO [DEXAMETHASONE]	–	–	–	> 30	> 30	> 10	> 30	> 10	> 30	–
CCN1CC(CCN2CCOCC2)C(c2ccccc2)(c2ccccc2)C1=O (stereo unspecified) [DOXAPRAM]	–	> 30	–	> 30	–	–	–	> 30	–	–
CCc1cc2c(s1)-n1c(C)nnc1CN=C2c1ccccc1Cl [ETIZOLAM]	> 30	> 30	> 30	> 30	–	–	–	–	–	> 30
CCOC(=O)c1ncn2c1CN(C)C(=O)c1cc(F)ccc1-2 [FLUMAZENIL]	–	> 30	–	> 30	> 30	> 30	> 10	> 10	> 30	> 30
CN1CCN=C(c2ccccc2)c2cc(Cl)ccc21 [MEDAZEPAM]	> 30	19	> 30	> 30	–	–	–	> 30	–	–
COc1ccc2cc(CCC(C)=O)ccc2c1 [NABUMETONE]	–	> 30	–	> 30	> 10	> 10	> 30	> 10	> 30	–
O=C(NCCO[N+](=O)[O-])c1cccnc1 [NICORANDIL]	> 30	> 30	> 30	> 30	–	–	–	–	–	–
CO[C@H]1C[C@H](O[C@H]2CC[C@@]3(C)[C@H](CC[C@@H]4[C@@H]3CC[C@]3(C)[C@@H](C5=CC(=O)OC5)[C@@H](OC(C)=O)C[C@]43O)C2)O[C@@H](C)[C@@H]1O [OLEANDRIN]	> 30	> 30	> 30	–	–	–	–	> 30	–	–

SMILES	AC50 [1] [µM]	AC50 [2] [µM]	AC50 [3] [µM]	AC50 (Mu-type opioid receptor [4]) [µM]	AC50 (Melanocortin receptor 4) [µM]	AC50 (Cannabinoid receptor 1) [µM]	AC50 [5] [µM]	AC50 [6] [µM]	AC50 (Mu-type opioid receptor [7]) [µM]	AC50 (Estrogen receptor) [µM]
C[C@]12C/C(=C/O)C(=O)C[C@@H]1CC[C@@H]1[C@@H]2CC[C@@]2(C)[C@H]1CC[C@]2(C)O [OXYMETHOLONE]	–	> 30	–	> 30	–	–	–	–	–	> 30
COc1cc2[nH]c(C)c(CCN3CCN(c4ccccc4)CC3)c2cc1OC [OXYPERTINE]	> 30	–	> 30	> 30	–	–	–	0.15	–	–
NC(=O)NC(=O)Cc1ccccc1 [PHENACEMIDE]	–	–	–	–	> 10	> 10	> 10	> 10	> 30	> 10
c1ccc(C2(N3CCCCC3)CCCCC2)cc1 [PHENCYCLIDINE]	> 30	> 30	> 30	> 30	–	–	–	> 30	–	–
OC[C@H]1O[C@@H](Oc2cc(O)cc(/C=C/c3ccc(O)cc3)c2)[C@H](O)[C@@H](O)[C@@H]1O [PICEID]	> 30	19	> 30	> 30	–	–	–	–	–	> 30
O=C1CC[C@@H](C(=O)N2CSC[C@H]2C(=O)O)N1 [PIDOTIMOD] ([pGlu]-[Thz]-OH)	> 30	> 30	> 30	> 30	–	–	–	–	–	> 30
COc1cc(C(=O)OCc2cccc(COC(=O)c3cc(OC)c(OC)c(OC)c3)n2)cc(OC)c1OC [PIROZADIL]	> 30	–	> 30	> 30	–	–	–	> 30	–	–
CCCN(CCC)S(=O)(=O)c1ccc(C(=O)O)cc1 [PROBENECID]	–	–	–	–	> 10	> 10	> 10	> 10	> 30	–
CCC(NC(C)C)C(O)c1ccc(O)c2[nH]c(=O)ccc12 (stereo unspecified) [PROCATEROL]	> 30	> 30	> 30	> 30	–	–	–	–	–	> 30
CCCN1CCCC[C@H]1C(=O)Nc1c(C)cccc1C [ROPIVACAINE]	> 30	> 30	> 30	> 30	–	–	–	–	–	–
Cc1cc(C)nc(NS(=O)(=O)c2ccc(N)cc2)n1 [SULFAMETHAZINE]	–	–	–	> 30	> 10	> 10	> 30	> 10	> 30	–
CCN1CCCC1CNC(=O)c1cc(S(=O)(=O)CC)ccc1OC (stereo unspecified) [SULTOPRIDE]	> 30	–	> 30	> 30	–	–	–	> 30	–	–
COc1cc(C(=O)NC2CCCNC2)cc(OC)c1OC (stereo unspecified) [TROXIPIDE]	–	> 30	–	> 30	–	–	–	–	–	–
CCCCCCCC(=O)CC[C@@H]1[C@@H](C/C=C\CCCC(=O)OC(C)C)[C@@H](O)C[C@H]1O [UNOPROSTONE ISOPROPYL]	–	–	> 30	–	–	–	–	–	–	–
CC(C(=O)O)c1ccc2c(c1)CC(=O)c1ccccc1S2 (stereo unspecified) [ZALTOPROFEN]	> 30	> 30	> 30	> 30	–	–	–	–	–	> 30
CC(c1cc2ccccc2s1)N(O)C(N)=O (stereo unspecified) [ZILEUTON]	–	> 30	–	–	> 10	> 10	> 10	–	> 30	> 30
